Test results published in PubChem BioAssay (NCI).
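Five compound concentrations were applied to cells in 96-well plates for 48 hours; endpoints were derived by simple linear interpolation of the resulting dose-response curve. The concentration for full growth arrest is given as TGI.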

Key:
Assay in all cases: growth of human tumour cells (NCI), 48 h
OVCAR-8 ovarian = system: OVCAR-8 ovarian
PC-3 prostate = system: PC-3 prostate
MOLT-4 leukemia = system: MOLT-4 leukemia
CCRF-CEM leukemia = system: CCRF-CEM leukemia
OVCAR-4 ovarian = system: OVCAR-4 ovarian
RXF 393 renal = system: RXF 393 renal
DU-145 prostate = system: DU-145 prostate
NCI-H522 lung = system: NCI-H522 lung
OVCAR-3 ovarian = system: OVCAR-3 ovarian
MCF7 breast = system: MCF7 breast
U251 CNS = system: U251 CNS
NCI-H460 lung = system: NCI-H460 lung
HOP-92 NSCLC = system: HOP-92 NSCLC
HT29 colon = system: HT29 colon
SR leukemia = system: SR leukemia
T-47D breast = system: T-47D breast
TK-10 renal = system: TK-10 renal
RPMI-8226 leukemia = system: RPMI-8226 leukemia
HCC-2998 colon = system: HCC-2998 colon
SK-MEL-28 melanoma = system: SK-MEL-28 melanoma
ACHN renal = system: ACHN renal
MDA-N = system: MDA-N
SNB-19 CNS = system: SNB-19 CNS
OVCAR-5 ovarian = system: OVCAR-5 ovarian
UACC-62 melanoma = system: UACC-62 melanoma
NCI-H226 lung = system: NCI-H226 lung
IGROV1 ovarian = system: IGROV1 ovarian
SF-295 CNS = system: SF-295 CNS
HCT-15 colon = system: HCT-15 colon
BT-549 breast = system: BT-549 breast
NCI-H23 lung = system: NCI-H23 lung
LOX IMVI melanoma = system: LOX IMVI melanoma
CAKI-1 renal = system: CAKI-1 renal
HL-60(TB) leukemia = system: HL-60(TB) leukemia
SN12C renal = system: SN12C renal
HS 578T breast = system: HS 578T breast
A549 NSCLC = system: A549 NSCLC
SF-268 CNS = system: SF-268 CNS
MALME-3M melanoma = system: MALME-3M melanoma
SW-620 colon = system: SW-620 colon
SK-OV-3 ovarian = system: SK-OV-3 ovarian
MDA-MB-435 = system: MDA-MB-435
A498 renal = system: A498 renal
UO-31 renal = system: UO-31 renal
HCT-116 colon = system: HCT-116 colon
EKVX NSCLC = system: EKVX NSCLC
UACC-257 melanoma = system: UACC-257 melanoma
SNB-75 CNS = system: SNB-75 CNS
K-562 leukemia = system: K-562 leukemia
COLO 205 colon = system: COLO 205 colon
HOP-62 NSCLC = system: HOP-62 NSCLC
KM12 colon = system: KM12 colon
M14 melanoma = system: M14 melanoma
SF-539 CNS = system: SF-539 CNS
NCI/ADR-RES ovarian = system: NCI/ADR-RES ovarian
786-0 renal = system: 786-0 renal
MDA-MB-231 breast = system: MDA-MB-231 breast
SK-MEL-5 melanoma = system: SK-MEL-5 melanoma
SK-MEL-2 melanoma = system: SK-MEL-2 melanoma
DMS 114 small cell lung = system: DMS 114 small cell lung
DMS 273 small cell lung = system: DMS 273 small cell lung
HOP-18 NSCLC = system: HOP-18 NSCLC
DLD-1 colon = system: DLD-1 colon
M19-MEL melanoma = system: M19-MEL melanoma
LXFL 529 NSCLC = system: LXFL 529 NSCLC
SNB-78 CNS = system: SNB-78 CNS
KM20L2 colon = system: KM20L2 colon

## CCCNC(=S)N/N=C(\C)c1ccc(S(=O)(=O)N(C)c2ccccc2)cc1
OVCAR-8 ovarian
  TGI: > 100 µM
PC-3 prostate
  TGI: > 100 µM
MOLT-4 leukemia
  TGI: > 100 µM
CCRF-CEM leukemia
  TGI: > 31.6 µM
OVCAR-4 ovarian
  TGI: > 100 µM
RXF 393 renal
  TGI: 38.2 µM
DU-145 prostate
  TGI: > 100 µM
NCI-H522 lung
  TGI: > 100 µM
OVCAR-3 ovarian
  TGI: > 100 µM
MCF7 breast
  TGI: > 100 µM
U251 CNS
  TGI: > 78 µM
NCI-H460 lung
  TGI: > 100 µM
HOP-92 NSCLC
  TGI: > 100 µM
HT29 colon
  TGI: > 100 µM
SR leukemia
  TGI: > 100 µM
T-47D breast
  TGI: > 100 µM
TK-10 renal
  TGI: > 91.6 µM
RPMI-8226 leukemia
  TGI: > 31.6 µM
HCC-2998 colon
  TGI: > 100 µM
SK-MEL-28 melanoma
  TGI: > 100 µM
ACHN renal
  TGI: > 64.9 µM
MDA-N
  TGI: > 100 µM
SNB-19 CNS
  TGI: > 87.3 µM
OVCAR-5 ovarian
  TGI: > 100 µM
UACC-62 melanoma
  TGI: > 100 µM
NCI-H226 lung
  TGI: > 75.6 µM
IGROV1 ovarian
  TGI: > 66.1 µM
SF-295 CNS
  TGI: 58 µM
HCT-15 colon
  TGI: > 100 µM
BT-549 breast
  TGI: > 100 µM
NCI-H23 lung
  TGI: > 100 µM
LOX IMVI melanoma
  TGI: > 100 µM
CAKI-1 renal
  TGI: 97.7 µM
HL-60(TB) leukemia
  TGI: > 100 µM
SN12C renal
  TGI: > 100 µM
HS 578T breast
  TGI: 24.4 µM
A549 NSCLC
  TGI: > 100 µM
SF-268 CNS
  TGI: 41.8 µM
MALME-3M melanoma
  TGI: > 100 µM
SW-620 colon
  TGI: > 100 µM
SK-OV-3 ovarian
  TGI: 97 µM
MDA-MB-435
  TGI: > 100 µM
A498 renal
  TGI: > 100 µM
UO-31 renal
  TGI: > 100 µM
HCT-116 colon
  TGI: > 100 µM
EKVX NSCLC
  TGI: > 100 µM
UACC-257 melanoma
  TGI: > 100 µM
SNB-75 CNS
  TGI: > 58.4 µM
K-562 leukemia
  TGI: > 100 µM
COLO 205 colon
  TGI: > 100 µM
HOP-62 NSCLC
  TGI: 29 µM
KM12 colon
  TGI: > 100 µM
M14 melanoma
  TGI: > 87.4 µM
SF-539 CNS
  TGI: 21.7 µM
NCI/ADR-RES ovarian
  TGI: > 100 µM
786-0 renal
  TGI: > 72.9 µM
MDA-MB-231 breast
  TGI: > 100 µM
SK-MEL-5 melanoma
  TGI: > 100 µM
SK-MEL-2 melanoma
  TGI: > 100 µM

## C[C@]12CCC(=O)C(OC(=O)c3ccc([N+](=O)[O-])cc3)=C1CCC2=O
OVCAR-8 ovarian
  TGI: > 100 µM
MOLT-4 leukemia
  TGI: > 100 µM
CCRF-CEM leukemia
  TGI: > 100 µM
OVCAR-4 ovarian
  TGI: > 100 µM
RXF 393 renal
  TGI: > 100 µM
DMS 114 small cell lung
  TGI: > 100 µM
NCI-H522 lung
  TGI: > 100 µM
OVCAR-3 ovarian
  TGI: > 100 µM
U251 CNS
  TGI: > 100 µM
DMS 273 small cell lung
  TGI: > 100 µM
NCI-H460 lung
  TGI: > 100 µM
HOP-92 NSCLC
  TGI: > 100 µM
HT29 colon
  TGI: > 100 µM
SR leukemia
  TGI: > 100 µM
TK-10 renal
  TGI: > 100 µM
RPMI-8226 leukemia
  TGI: > 100 µM
HCC-2998 colon
  TGI: > 100 µM
SK-MEL-28 melanoma
  TGI: > 100 µM
ACHN renal
  TGI: > 100 µM
HOP-18 NSCLC
  TGI: > 100 µM
SNB-19 CNS
  TGI: > 100 µM
OVCAR-5 ovarian
  TGI: > 100 µM
UACC-62 melanoma
  TGI: > 100 µM
NCI-H226 lung
  TGI: > 100 µM
DLD-1 colon
  TGI: > 100 µM
IGROV1 ovarian
  TGI: > 100 µM
SF-295 CNS
  TGI: > 100 µM
M19-MEL melanoma
  TGI: > 100 µM
HCT-15 colon
  TGI: > 100 µM
LXFL 529 NSCLC
  TGI: > 100 µM
LOX IMVI melanoma
  TGI: > 100 µM
SNB-78 CNS
  TGI: > 100 µM
CAKI-1 renal
  TGI: > 100 µM
HL-60(TB) leukemia
  TGI: > 100 µM
SN12C renal
  TGI: > 100 µM
KM20L2 colon
  TGI: > 100 µM
A549 NSCLC
  TGI: > 100 µM
SF-268 CNS
  TGI: > 100 µM
MALME-3M melanoma
  TGI: > 100 µM
SW-620 colon
  TGI: > 100 µM
SK-OV-3 ovarian
  TGI: > 100 µM
A498 renal
  TGI: > 100 µM
HCT-116 colon
  TGI: > 100 µM
EKVX NSCLC
  TGI: > 100 µM
UACC-257 melanoma
  TGI: > 100 µM
SNB-75 CNS
  TGI: > 100 µM
COLO 205 colon
  TGI: > 100 µM
HOP-62 NSCLC
  TGI: > 100 µM
KM12 colon
  TGI: > 100 µM
M14 melanoma
  TGI: > 100 µM
SF-539 CNS
  TGI: > 100 µM
786-0 renal
  TGI: > 100 µM
SK-MEL-5 melanoma
  TGI: > 100 µM

## COc1ccc([N+](=O)[O-])c2c(NCCCN(C)C)ccnc12
OVCAR-8 ovarian
  TGI: > 48.5 µM
PC-3 prostate
  TGI: 30.8 µM
MOLT-4 leukemia
  TGI: 8.12 µM
CCRF-CEM leukemia
  TGI: 61.9 µM
OVCAR-4 ovarian
  TGI: 3.69 µM
RXF 393 renal
  TGI: 8.32 µM
DU-145 prostate
  TGI: 29.1 µM
NCI-H522 lung
  TGI: 3.34 µM
OVCAR-3 ovarian
  TGI: 6.78 µM
MCF7 breast
  TGI: > 38.8 µM
U251 CNS
  TGI: 23.6 µM
NCI-H460 lung
  TGI: 5.63 µM
HOP-92 NSCLC
  TGI: 4.38 µM
HT29 colon
  TGI: > 32.4 µM
SR leukemia
  TGI: 1.97 µM
T-47D breast
  TGI: 29 µM
TK-10 renal
  TGI: 70.5 µM
RPMI-8226 leukemia
  TGI: 6.53 µM
HCC-2998 colon
  TGI: 6.95 µM
SK-MEL-28 melanoma
  TGI: > 100 µM
ACHN renal
  TGI: 14.5 µM
MDA-N
  TGI: 27 µM
SNB-19 CNS
  TGI: 28.2 µM
OVCAR-5 ovarian
  TGI: 42.4 µM
UACC-62 melanoma
  TGI: 11.4 µM
NCI-H226 lung
  TGI: 30.2 µM
IGROV1 ovarian
  TGI: 4.85 µM
SF-295 CNS
  TGI: 24.8 µM
HCT-15 colon
  TGI: 4.95 µM
BT-549 breast
  TGI: 6.45 µM
NCI-H23 lung
  TGI: 6.19 µM
LOX IMVI melanoma
  TGI: 31 µM
CAKI-1 renal
  TGI: 42.9 µM
HL-60(TB) leukemia
  TGI: 22.8 µM
SN12C renal
  TGI: 34 µM
HS 578T breast
  TGI: 34.6 µM
A549 NSCLC
  TGI: 23.8 µM
SF-268 CNS
  TGI: 28.9 µM
MALME-3M melanoma
  TGI: 5.62 µM
SW-620 colon
  TGI: 32.4 µM
SK-OV-3 ovarian
  TGI: 43.2 µM
MDA-MB-435
  TGI: 23.1 µM
A498 renal
  TGI: 5.18 µM
UO-31 renal
  TGI: 17.3 µM
HCT-116 colon
  TGI: 22.8 µM
EKVX NSCLC
  TGI: 22.8 µM
UACC-257 melanoma
  TGI: 12 µM
SNB-75 CNS
  TGI: 15.8 µM
K-562 leukemia
  TGI: 5.73 µM
COLO 205 colon
  TGI: 7.17 µM
HOP-62 NSCLC
  TGI: 15.6 µM
KM12 colon
  TGI: 24.2 µM
M14 melanoma
  TGI: 20.8 µM
SF-539 CNS
  TGI: 17 µM
NCI/ADR-RES ovarian
  TGI: 42.2 µM
786-0 renal
  TGI: 30.6 µM
MDA-MB-231 breast
  TGI: > 73.8 µM
SK-MEL-5 melanoma
  TGI: 5.22 µM
SK-MEL-2 melanoma
  TGI: 4.48 µM
